In ChEMBL document CHEMBL3822390, “Synthesis, characterization and anti-cancer activity of a peptide nucleolipid bioconjugate” (2016):

Tests used:
Assay type in all cases: functional
[1] = Cytotoxicity against human SW620 cells assessed as cell growth at 10 uM after 48 hrs by SRB assay; conditions: SW-620, 48 h, read-out: Activity
[2] = Cytotoxicity against human UO31 cells assessed as cell growth at 10 uM after 48 hrs by SRB assay; conditions: UO-31, 48 h, read-out: Activity
[3] = Cytotoxicity against human NCI-ADR-RES cells assessed as cell growth at 10 uM after 48 hrs by SRB assay; conditions: read-out: Activity
NCI-H460 = assay: Cytotoxicity against human NCI-H460 cells assessed as cell growth at 10 uM after 48 hrs by SRB assay; conditions: NCI-H460, 48 h, read-out: Activity
[4] = Cytotoxicity against human PC3 cells assessed as cell growth at 10 uM after 48 hrs by SRB assay; conditions: PC-3, 48 h, read-out: Activity
SR = assay: Cytotoxicity against human SR cells assessed as cell growth at 10 uM after 48 hrs by SRB assay; conditions: read-out: Activity
NCI-H226 [5] = assay: Cytotoxicity against human NCI-H226 cells assessed as cell growth at 10 uM after 48 hrs by SRB assay; conditions: NCI-H226, 48 h, read-out: Activity
NCI-H226 [6] = assay: Cytotoxicity against human NCI-H226 cells assessed as cell mortality at 10 uM after 48 hrs by SRB assay; conditions: NCI-H226, 48 h
[7] = Cytotoxicity against human HCC2998 cells assessed as cell growth at 10 uM after 48 hrs by SRB assay; conditions: HCC 2998, 48 h, read-out: Activity
MDA-MB-468 [8] = assay: Cytotoxicity against human MDA-MB-468 cells assessed as cell growth at 10 uM after 48 hrs by SRB assay; conditions: MDA-MB-468, 48 h, read-out: Activity
CCRF-CEM = assay: Cytotoxicity against human CCRF-CEM cells assessed as cell growth at 10 uM after 48 hrs by SRB assay; conditions: read-out: Activity
HT-29 [9] = assay: Cytotoxicity against human HT-29 cells assessed as cell growth at 10 uM after 48 hrs by SRB assay; conditions: HT-29, 48 h, read-out: Activity
MCF7 = assay: Cytotoxicity against human MCF7 cells assessed as cell growth at 7.25 uM after 48 hrs by SRB assay; conditions: MCF7, 48 h, read-out: Activity
A498 = assay: Cytotoxicity against human A498 cells assessed as cell growth at 7.25 uM after 48 hrs by SRB assay; conditions: A498, 48 h, read-out: Activity
[10] = Cytotoxicity against human OVCAR5 cells assessed as cell growth at 7.25 uM after 48 hrs by SRB assay; conditions: OVCAR-5, 48 h, read-out: Activity
[11] = Cytotoxicity against human RPMI8226 cells assessed as cell growth at 7.25 uM after 48 hrs by SRB assay; conditions: RPMI-8226, 48 h, read-out: Activity
MDA-MB-435 = assay: Cytotoxicity against human MDA-MB-435 cells assessed as cell growth at 7.25 uM after 48 hrs by SRB assay; conditions: MDA-MB-435, 48 h, read-out: Activity
KM12 = assay: Cytotoxicity against human KM12 cells assessed as cell growth at 7.25 uM after 48 hrs by SRB assay; conditions: KM12, 48 h, read-out: Activity
[12] = Cytotoxicity against human NCI-ADR-RES cells assessed as cell growth at 7.25 uM after 48 hrs by SRB assay; conditions: read-out: Activity
[13] = Cytotoxicity against human UACC257 cells assessed as cell growth at 7.25 uM after 48 hrs by SRB assay; conditions: UACC-257, 48 h, read-out: Activity
[14] = Cytotoxicity against human LOXIMVI cells assessed as cell growth at 7.25 uM after 48 hrs by SRB assay; conditions: LOX IMVI, read-out: Activity
NCI-H322M [15] = assay: Cytotoxicity against human NCI-H322M cells assessed as cell growth at 7.25 uM after 48 hrs by SRB assay; conditions: read-out: Activity
SK-MEL-28 = assay: Cytotoxicity against human SK-MEL-28 cells assessed as cell growth at 7.25 uM after 48 hrs by SRB assay; conditions: SK-MEL-28, 48 h, read-out: Activity
[16] = Cytotoxicity against human HL-60(TB) cells assessed as cell growth at 7.25 uM after 48 hrs by SRB assay; conditions: HL-60, 48 h, read-out: Activity
NCI-H522 [17] = assay: Cytotoxicity against human NCI-H522 cells assessed as cell mortality at 7.25 uM after 48 hrs by SRB assay; conditions: NCI-H522, 48 h
[18] = Cytotoxicity against human SNB75 cells assessed as cell growth at 7.25 uM after 48 hrs by SRB assay; conditions: SNB-75, 48 h, read-out: Activity
NCI-H522 [19] = assay: Cytotoxicity against human NCI-H522 cells assessed as cell mortality at 2.13 uM after 48 hrs by SRB assay; conditions: NCI-H522, 48 h
[20] = Cytotoxicity against human RXF393 cells assessed as cell growth at 2.13 uM after 48 hrs by SRB assay; conditions: RXF 393, 48 h, read-out: Activity
[21] = Cytotoxicity against human TK10 cells assessed as cell growth at 2.13 uM after 48 hrs by SRB assay; conditions: TK-10, 48 h, read-out: Activity
[22] = Cytotoxicity against human BT549 cells assessed as cell growth at 2.13 uM after 48 hrs by SRB assay; conditions: BT-549, 48 h, read-out: Activity
Malme-3M = assay: Cytotoxicity against human MALME-3M cells assessed as cell growth at 2.13 uM after 48 hrs by SRB assay; conditions: read-out: Activity
[23] = Cytotoxicity against human HCT116 cells assessed as cell growth at 2.13 uM after 48 hrs by SRB assay; conditions: HCT-116, 48 h, read-out: Activity
[24] = Cytotoxicity against human OVCAR4 cells assessed as cell growth at 2.13 uM after 48 hrs by SRB assay; conditions: OVCAR-4, 48 h, read-out: Activity
ACHN = assay: Cytotoxicity against human ACHN cells assessed as cell growth at 2.13 uM after 48 hrs by SRB assay; conditions: read-out: Activity
[25] = Cytotoxicity against human HL-60(TB) cells assessed as cell growth at 2.13 uM after 48 hrs by SRB assay; conditions: HL-60, 48 h, read-out: Activity
NCI-H322M [26] = assay: Cytotoxicity against human NCI-H322M cells assessed as cell growth at 2.13 uM after 48 hrs by SRB assay; conditions: read-out: Activity
HT-29 [27] = assay: Cytotoxicity against human HT-29 cells assessed as cell growth at 2.13 uM after 48 hrs by SRB assay; conditions: HT-29, 48 h, read-out: Activity
[28] = Cytotoxicity against human HCT15 cells assessed as cell growth at 2.13 uM after 48 hrs by SRB assay; conditions: HCT-15, 48 h, read-out: Activity
[29] = Cytotoxicity against human OVCAR5 cells assessed as cell growth at 2.13 uM after 48 hrs by SRB assay; conditions: OVCAR-5, 48 h, read-out: Activity
[30] = Cytotoxicity against human PC3 cells assessed as cell growth at 2.13 uM after 48 hrs by SRB assay; conditions: PC-3, 48 h, read-out: Activity
MDA-MB-468 [31] = assay: Cytotoxicity against human MDA-MB-468 cells assessed as cell growth at 2.13 uM after 48 hrs by SRB assay; conditions: MDA-MB-468, 48 h, read-out: Activity

SMILES: CC(C)C[C@H](NC(=O)[C@H](CCCCN)NC(=O)[C@H](C)NC(=O)[C@H](CC(C)C)NC(=O)[C@H](CCCCN)NC(=O)[C@H](CCCCN)NC(=O)[C@H](C)NC(=O)[C@H](CC(C)C)NC(=O)[C@H](CCCCN)NC(=O)[C@H](C)NC(=O)[C@H](CC(C)C)NC(=O)[C@H](CCCCN)NC(=O)[C@@H](N)CC(=O)O)C(=O)N[C@@H](C)C(=O)N[C@@H](CCCCN)C(=O)N[C@@H](C)C(=O)N[C@@H](CCCCN)C(N)=O
- growth at 10 µM [1]: 106%
- growth at 10 µM [2]: 98%
- growth at 10 µM [3]: 105%
- growth at 10 µM (NCI-H460): 117%
- growth at 10 µM [4]: 94.7%
- growth at 10 µM (SR): 85%
- growth at 10 µM (NCI-H226 [5]): 99.1%
- mortality at 10 µM (NCI-H226 [6]): 1%
- growth at 10 µM [7]: 100%
- growth at 10 µM (MDA-MB-468 [8]): 100%
- growth at 10 µM (CCRF-CEM): 108%
- growth at 10 µM (HT-29 [9]): 94.8%

SMILES: CCCCCCCCCCCCCCCC(=O)NCCCC[C@H](NC(=O)[C@H](C)NC(=O)[C@H](CCCCN)NC(=O)[C@H](C)NC(=O)[C@H](CC(C)C)NC(=O)[C@H](CCCCN)NC(=O)[C@H](C)NC(=O)[C@H](CC(C)C)NC(=O)[C@H](CCCCN)NC(=O)[C@H](CCCCN)NC(=O)[C@H](C)NC(=O)[C@H](CC(C)C)NC(=O)[C@H](CCCCN)NC(=O)[C@H](C)NC(=O)[C@H](CC(C)C)NC(=O)[C@H](CCCCN)NC(=O)[C@@H](N)CC(=O)O)C(N)=O
- growth at 7.25 µM (MCF7): 98.7%
- growth at 7.25 µM (A498): 111%
- growth at 7.25 µM [10]: 105%
- growth at 7.25 µM [11]: 103%
- growth at 7.25 µM (MDA-MB-435): 113%
- growth at 7.25 µM (KM12): 110%
- growth at 7.25 µM [12]: 111%
- growth at 7.25 µM [13]: 73.1%
- growth at 7.25 µM [14]: 95.6%
- growth at 7.25 µM (NCI-H322M [15]): 108%
- growth at 7.25 µM (SK-MEL-28): 106%
- growth at 7.25 µM [16]: 93.1%
- mortality at 7.25 µM (NCI-H522 [17]): 16%
- growth at 7.25 µM [18]: 93.6%

SMILES: CCCCCCCCCCCCCCCCNCCO[C@H]1C[C@H](n2cc(C)c(=O)[nH]c2=O)O[C@@H]1C(=O)NCCCC[C@H](NC(=O)[C@H](C)NC(=O)[C@H](CCCCN)NC(=O)[C@H](C)NC(=O)[C@H](CC(C)C)NC(=O)[C@H](CCCCN)NC(=O)[C@H](C)NC(=O)[C@H](CC(C)C)NC(=O)[C@H](CCCCN)NC(=O)[C@H](CCCCN)NC(=O)[C@H](C)NC(=O)[C@H](CC(C)C)NC(=O)[C@H](CCCCN)NC(=O)[C@H](C)NC(=O)[C@H](CC(C)C)NC(=O)[C@H](CCCCN)NC(=O)[C@@H](N)CC(=O)O)C(N)=O
- mortality at 2.13 µM (NCI-H522 [19]): 11%
- growth at 2.13 µM [20]: 113%
- growth at 2.13 µM [21]: 95.9%
- growth at 2.13 µM [22]: 113%
- growth at 2.13 µM (Malme-3M): 104%
- growth at 2.13 µM [23]: 99.9%
- growth at 2.13 µM [24]: 112%
- growth at 2.13 µM (ACHN): 106%
- growth at 2.13 µM [25]: 93.8%
- growth at 2.13 µM (NCI-H322M [26]): 110%
- growth at 2.13 µM (HT-29 [27]): 102%
- growth at 2.13 µM [28]: 104%
- growth at 2.13 µM [29]: 105%
- growth at 2.13 µM [30]: 92.3%
- growth at 2.13 µM (MDA-MB-468 [31]): 100%
